Data reported in ChEMBL document CHEMBL2202996, “Synthesis, evaluation, and radiolabeling of new potent positive allosteric modulators of the metabotropic glutamate receptor 2 as potential tracers for positron emission tomography imaging” (J Med Chem, 2012).

What was measured:
Cortex = test: Ratio of SUV in cortex in iv dosed Wistar at 2 mins post administration by gamma counting to SUV in cortex in iv dosed Wistar at 30 mins post administration by gamma counting; assay type: ADME, organism-based; conditions: rat, in vivo
Brain [1] = test: Ratio of SUV in total brain in iv dosed Wistar at 2 mins post administration by gamma counting to SUV in total brain in iv dosed Wistar at 30 mins post administration by gamma counting; assay type: ADME, organism-based; conditions: rat, in vivo
Striatum = test: Ratio of SUV in striatum in iv dosed Wistar at 2 mins post administration by gamma counting to SUV in striatum in iv dosed Wistar at 30 mins post administration by gamma counting; assay type: ADME, organism-based; conditions: rat, in vivo
Brain [2] = test: Biodistribution in Wistar rat brain at 22 Mbq, iv measured at 2 mins post administration by gamma counting; assay type: ADME, organism-based; conditions: in vivo
Cerebrum [3] = test: Ratio of SUV in cerebrum in iv dosed Wistar at 2 mins post administration by gamma counting to SUV in cerebrum in iv dosed Wistar at 30 mins post administration by gamma counting; assay type: ADME, organism-based; conditions: rat, in vivo
Cerebrum [4] = test: Biodistribution in Wistar rat cerebrum at 22 Mbq, iv measured at 2 mins post administration by gamma counting; assay type: ADME, organism-based; conditions: in vivo
Hippocampus = test: Ratio of SUV in hippocampus in iv dosed Wistar at 2 mins post administration by gamma counting to SUV in hippocampus in iv dosed Wistar at 30 mins post administration by gamma counting; assay type: ADME, organism-based; conditions: rat, in vivo
Cerebellum [5] = test: Biodistribution in Wistar rat cerebellum at 22 Mbq, iv measured at 2 mins post administration by gamma counting; assay type: ADME, organism-based; conditions: in vivo
Cerebellum [6] = test: Ratio of SUV in cerebellum in iv dosed Wistar at 2 mins post administration by gamma counting to SUV in cerebellum in iv dosed Wistar at 30 mins post administration by gamma counting; assay type: ADME, organism-based; conditions: rat, in vivo
Rattus norvegicus = test: Biodistribution in Wistar rat urinary system at 22 Mbq, iv measured at 60 mins post administration by gamma counting; assay type: ADME, organism-based, Urine; conditions: in vivo, 1 h
[7] = Metabolic stability in Wistar rat cerebellum assessed as intact tracer at 74 MBq, iv measured at 30 mins post administration by gamma counting; assay type: ADME, organism-based; conditions: read-out: Stability
Liver = test: Biodistribution in Wistar rat liver at 22 Mbq, iv measured at 60 mins post administration by gamma counting; assay type: ADME, organism-based; conditions: in vivo, 1 h
[8] = Metabolic stability in Wistar rat plasma assessed as intact tracer at 74 MBq, iv measured at 30 mins post administration by gamma counting; assay type: ADME, organism-based; conditions: read-out: Stability
Intestine = test: Biodistribution in Wistar rat intestine at 22 Mbq, iv measured at 60 mins post administration by gamma counting; assay type: ADME, organism-based; conditions: in vivo, 1 h
[9] = Metabolic stability in Wistar rat cerebrum assessed as intact tracer at 74 MBq, iv measured at 30 mins post administration by gamma counting; assay type: ADME, organism-based; conditions: read-out: Stability
[10] = molecular target: T1, Metabotropic glutamate receptor 2 (Homo sapiens, UniProt Q14416); test: Agonist activity at human mGLuR2 expressed in CHO cell membrane assessed as […] after 30 mins by scintillation counting relative to control; assay type: functional, cell membranes
Target sequence in this assay (Q14416 19-872 limits assumed): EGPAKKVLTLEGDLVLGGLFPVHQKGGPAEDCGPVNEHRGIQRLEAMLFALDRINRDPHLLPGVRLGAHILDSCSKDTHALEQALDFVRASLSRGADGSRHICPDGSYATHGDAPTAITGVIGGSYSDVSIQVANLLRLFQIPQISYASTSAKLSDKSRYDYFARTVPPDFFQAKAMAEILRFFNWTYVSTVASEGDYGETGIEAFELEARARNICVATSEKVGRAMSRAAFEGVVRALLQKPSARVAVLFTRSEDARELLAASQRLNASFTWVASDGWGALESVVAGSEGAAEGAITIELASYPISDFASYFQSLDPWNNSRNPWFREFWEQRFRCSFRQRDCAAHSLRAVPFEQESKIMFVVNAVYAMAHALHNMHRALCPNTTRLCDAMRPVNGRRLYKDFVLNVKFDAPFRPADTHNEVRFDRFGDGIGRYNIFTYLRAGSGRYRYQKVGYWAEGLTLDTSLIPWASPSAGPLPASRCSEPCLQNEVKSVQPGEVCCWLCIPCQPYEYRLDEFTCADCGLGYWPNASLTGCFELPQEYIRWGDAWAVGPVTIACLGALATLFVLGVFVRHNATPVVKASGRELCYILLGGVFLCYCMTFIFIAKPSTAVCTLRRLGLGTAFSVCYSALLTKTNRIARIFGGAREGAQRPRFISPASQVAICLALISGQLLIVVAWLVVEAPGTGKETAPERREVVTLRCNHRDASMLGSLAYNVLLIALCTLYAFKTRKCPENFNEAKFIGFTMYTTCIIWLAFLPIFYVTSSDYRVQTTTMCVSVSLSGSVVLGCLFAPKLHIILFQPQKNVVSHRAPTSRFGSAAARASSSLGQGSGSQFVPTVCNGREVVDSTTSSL

Liver microsomes [11] = test: Drug metabolism in human liver microsomes assessed as M+O oxidative metabolite; assay type: ADME, Microsome
Liver microsomes [12] = test: Drug metabolism in human liver microsomes assessed as O-methylated compound derivative; assay type: ADME, Microsome
[13] = Fraction unbound in rat plasma; assay type: ADME, cell-free
Liver microsomes [14] = test: Drug metabolism in rat liver microsomes assessed as O-methylated compound derivative; assay type: ADME, Microsome
Liver microsomes [15] = test: Drug metabolism in rat liver microsomes assessed as M+O oxidative metabolite; assay type: ADME, Microsome
[16] = Fraction unbound in human plasma; assay type: ADME, cell-free
HEK293 [17] = test: Selectivity ratio for human mGluR7 expressed in HEK293 cells to human mGluR2 expressed in CHO cell membranes; assay type: cell-based
HEK293 [18] = test: Selectivity ratio for human mGluR5 expressed in HEK293 cells to human mGluR2 expressed in CHO cell membranes; assay type: cell-based
HEK293 [19] = test: Selectivity ratio for human mGluR1 expressed in HEK293 cells to human mGluR2 expressed in CHO cell membranes; assay type: cell-based
HEK293 [20] = test: Selectivity ratio for human mGluR8 expressed in HEK293 cells to human mGluR2 expressed in CHO cell membranes; assay type: cell-based
HEK293 [21] = test: Selectivity ratio for human mGluR3 expressed in HEK293 cells to human mGluR2 expressed in CHO cell membranes; assay type: cell-based
CHO [22] = test: Selectivity ratio for rat mGluR6 to human mGluR2 expressed in CHO cell membranes; assay type: cell-based
CHO [23] = test: Selectivity ratio for human mGluR4 to human mGluR2 expressed in CHO cell membranes; assay type: cell-based
[24] = molecular target: T1, Metabotropic glutamate receptor 2; test: Displacement of [3H]JNJ-40068782 from human mGLuR2 expressed in CHO cell membrane after 60 mins by liquid scintillation counting; assay type: cell membranes
Target sequence in this assay (Q14416 whole entry): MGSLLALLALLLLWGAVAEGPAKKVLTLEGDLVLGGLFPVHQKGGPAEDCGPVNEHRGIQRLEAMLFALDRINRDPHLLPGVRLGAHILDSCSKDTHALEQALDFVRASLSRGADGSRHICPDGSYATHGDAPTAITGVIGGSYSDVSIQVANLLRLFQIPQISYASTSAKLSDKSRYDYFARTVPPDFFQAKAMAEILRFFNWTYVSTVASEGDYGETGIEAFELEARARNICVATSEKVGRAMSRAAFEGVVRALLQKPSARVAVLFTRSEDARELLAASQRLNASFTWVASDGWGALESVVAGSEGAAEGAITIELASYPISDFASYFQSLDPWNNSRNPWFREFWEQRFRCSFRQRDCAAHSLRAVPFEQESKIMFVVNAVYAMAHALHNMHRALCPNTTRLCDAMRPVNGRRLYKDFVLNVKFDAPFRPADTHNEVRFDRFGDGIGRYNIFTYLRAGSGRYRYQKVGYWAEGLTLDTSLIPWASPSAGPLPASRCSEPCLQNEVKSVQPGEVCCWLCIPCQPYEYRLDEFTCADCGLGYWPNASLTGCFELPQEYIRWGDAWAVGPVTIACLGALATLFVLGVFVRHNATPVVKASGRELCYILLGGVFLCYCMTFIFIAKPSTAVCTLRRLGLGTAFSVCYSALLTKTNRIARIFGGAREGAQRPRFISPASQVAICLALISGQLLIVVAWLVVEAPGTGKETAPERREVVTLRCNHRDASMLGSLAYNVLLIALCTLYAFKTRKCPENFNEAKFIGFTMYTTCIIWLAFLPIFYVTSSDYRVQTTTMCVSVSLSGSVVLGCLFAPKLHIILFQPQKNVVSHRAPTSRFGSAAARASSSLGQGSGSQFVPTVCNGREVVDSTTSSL

[25] = molecular target: T1, Metabotropic glutamate receptor 2; test: Agonist activity at human mGLuR2 expressed in CHO cell membrane assessed as […] after 30 mins by scintillation counting; assay type: functional, cell membranes
Target sequence in this assay (Q14416 whole entry): as above

SMILES | Ratio (Cortex) | Ratio (Brain [1]) | Ratio (Striatum) | Drug uptake (Brain [2]) [%ID] | Ratio (Cerebrum [3]) | Drug uptake (Cerebrum [4]) [%ID] | Ratio (Hippocampus) | Drug uptake (Cerebellum [5]) [%ID] | Ratio (Cerebellum [6]) | Drug uptake (Rattus norvegicus) | remaining at 0.5 h [7] [%] | Drug uptake (Liver) | remaining at 0.5 h [8] [%] | Drug uptake (Intestine) | remaining at 0.5 h [9] [%] | Emax [10] [%] | Drug metabolism (Liver microsomes [11]) | Drug metabolism (Liver microsomes [12]) | fraction unbound [13] | Drug metabolism (Liver microsomes [14]) | further results
[11CH3]Oc1c(F)ccc(F)c1C1CCN(c2ccn3c(CC4CC4)nnc3c2C(F)(F)F)CC1 | 1.04 | 1.08 | 0.86 | 0.75 | 0.98 | 0.54 | 1.01 | 0.17 | 0.99 | – | – | – | – | – | – | – | – | – | – | – | –
[11CH3]Oc1ccc(F)cc1C1CCN(c2ccn3c(CC4CC4)nnc3c2Cl)CC1 | 0.88 | 0.79 | 0.63 | 0.58 | 0.83 | 0.45 | 0.66 | 0.1 | 0.63 | Active | 92.7 | Active | 41 | Active | 92.4 | – | – | – | – | – | –
[11CH3]Oc1ccc(F)c(F)c1C1CCN(c2ccn3c(CC4CC4)nnc3c2Cl)CC1 | 0.84 | 0.93 | 0.99 | 0.64 | 0.84 | 0.46 | 1.19 | 0.15 | 0.95 | Active | 96.4 | Active | 45.5 | Active | 93.1 | – | – | – | – | – | –
COc1c(F)cccc1C1CCN(c2ccn3c(CC4CC4)nnc3c2Cl)CC1 | – | – | – | – | – | – | – | – | – | – | – | – | – | – | – | 336 | Active | Active | < 0.01 | Active | Drug metabolism (Liver microsomes [15]): Active; fraction unbound [16]: < 0.01
COc1ccc(F)c(F)c1C1CCN(c2ccn3c(CC4CC4)nnc3c2Cl)CC1 | – | – | – | – | – | – | – | – | – | – | – | – | – | – | – | 258 | Active | Active | < 0.01 | Active | Selectivity ratio (HEK293 [17]): > 350; Selectivity ratio (HEK293 [18]): > 350; Selectivity ratio (HEK293 [19]): > 350; Selectivity ratio (HEK293 [20]): > 350; Selectivity ratio (HEK293 [21]): 70; Selectivity ratio (CHO [22]): > 350; Selectivity ratio (CHO [23]): > 350; IC50 [24]: 7.3 nM; Drug metabolism (Liver microsomes [15]): Active; fraction unbound [16]: < 0.01
N#Cc1c(N2CCC(c3ccccc3)CC2)ccn2c(CC(F)(F)F)nnc12 | – | – | – | – | – | – | – | – | – | – | – | – | – | – | – | – | – | – | – | – | EC50 ([25]; read-out: pEC50 (converted)): 56.2 nM
COc1c(F)cccc1C1CCN(c2ccn3c(CC4CC4)nnc3c2C(F)(F)F)CC1 | – | – | – | – | – | – | – | – | – | – | – | – | – | – | – | 528 | Active | Active | < 0.01 | Active | EC50 ([25]; read-out: EC50): 11 nM; Drug metabolism (Liver microsomes [15]): Active; fraction unbound [16]: < 0.01
[11CH3]Oc1cc(F)cc(F)c1C1CCN(c2ccn3c(CC4CC4)nnc3c2Cl)CC1 | 0.66 | 0.88 | 0.67 | 0.75 | 0.72 | 0.53 | 0.71 | 0.18 | 0.77 | Active | 95.5 | Active | 30.8 | Active | 92.9 | – | – | – | – | – | –
